For three molecules, mass density results are on record in the NIST ThermoML archive (doi:10.1021/je500542j).

SMILES strings stand for the structures. Values joined by “and” are separate entries in the source; they are usually repeats but may differ in a detail not shown here. Equal entries are not always repeated. ± gives the expanded uncertainty stated by the source.

The nature of the data set: wn = mass fraction of the nth substance listed. The following applies: 101 kPa, Liquid, Vibrating tube method.

As for `O=C(O)c1ccccc1C(=O)O` [1,2-benzenedicarboxylic acid] + CN1CCCC1=O, the mass density – broadly, the mass of a sample divided by its volume – is, setting by setting: (303.15 K, w1 = 0.158) 1037.8 ± 1 kg/m3 and 1038 ± 1 kg/m3; (313.15 K, w1 = 0.187) 1042.8 ± 1.1 kg/m3.

For the molecule `O=C(O)c1cccc(C(=O)O)c1` [1,3-benzenedicarboxylic acid] + CN1CCCC1=O, the mass density is on record as 1036.1 ± 1 kg/m3 (303.15 K, w1 = 0.1624) and 1038.5 ± 7.6 kg/m3 (313.15 K, w1 = 0.1957).

Turning to `O=C(O)c1ccc(C(=O)O)cc1` [1,4-benzenedicarboxylic acid] + CN1CCCC1=O, the mass density by setting is: (303.15 K, w1 = 0.05896) 1029.5 ± 1 kg/m3; (313.15 K, w1 = 0.08754) 1031.5 ± 1 kg/m3 and 1038.5 ± 1 kg/m3.
